The record followed here is patent US20010046987A1, “Oxazolidinones having a sulfoximine functionality” (priority 1999, published 2001).

Each structure is given as a SMILES string. Values after ≈ are worked out from the molar mass of the structure shown.

Common to all, as to assay type: cell-based
One test deals with Staphylococcus aureus. In words: MIC by agar dilution, SAUR 9213. Conditions: for MIC: Staphylococcus aureus, strain SAUR 9213, read-out: Antibacterial Activity Minimum Inhibitory Concentration SAUR 9213; for Antibacterial Activity Minimum Inhibitory Concentration SAUR 9213: strain SAUR 9213. The source says:
(§1) The in vitro activity of compounds of this invention can be assessed by standard testing procedures such as the determination of minimum inhibitory concentration (MIC) by agar dilution as described in “Approved Standard.
(In general: In agar dilution, organisms are placed on agar that contains the substance at set levels.)

In test [1] the test system is Staphylococcus epidermidis. In words: MIC by agar dilution, SEPI 30593. To be noted: for MIC: Staphylococcus epidermidis, strain SEPI 30593, read-out: Antibacterial Activity Minimum Inhibitory Concentration SEPI 30593; for Antibacterial Activity Minimum Inhibitory Concentration SEPI 30593: strain SEPI 30593.
Excerpt: as §1

A further test relates to Enterococcus faecalis. Description: MIC by agar dilution, EFAE 9217. Conditions: for MIC: Enterococcus faecalis, strain EFAE 9217, read-out: Antibacterial Activity Minimum Inhibitory Concentration EFAE 9217; for Antibacterial Activity Minimum Inhibitory Concentration EFAE 9217: strain EFAE 9217.
Excerpt: as §1

Another test relates to Streptococcus pneumoniae. Description: MIC by agar dilution, SPNE 9912. Conditions: for MIC: Streptococcus pneumoniae, strain SPNE 9912, read-out: Antibacterial Activity Minimum Inhibitory Concentration SPNE 9912; for Antibacterial Activity Minimum Inhibitory Concentration SPNE 9912: strain SPNE 9912.
Excerpt: as §1

A further test deals with Enterococcus faecium. Description: MIC by agar dilution, EFAE 12712. To be noted: for MIC: Enterococcus faecium, strain EFAE 12712, read-out: Antibacterial Activity Minimum Inhibitory Concentration EFAE 12712; for Antibacterial Activity Minimum Inhibitory Concentration EFAE 12712: strain EFAE 12712.
Excerpt: as §1

In a further test the test system is H. influenzae. In words: MIC by agar dilution, HINF 30063. Conditions: for MIC: Haemophilus influenzae, strain HINF 30063, read-out: Antibacterial Activity Minimum Inhibitory Concentration HINF 30063; for Antibacterial Activity Minimum Inhibitory Concentration HINF 30063: strain HINF 30063.
Excerpt: as §1

Another test deals with Streptococcus pyogenes. In words: MIC by agar dilution, SPYO 152. Conditions: for MIC: Streptococcus pyogenes, strain SPYO 152, read-out: Antibacterial Activity Minimum Inhibitory Concentration SPYO 152; for Antibacterial Activity Minimum Inhibitory Concentration SPYO 152: strain SPYO 152.
Excerpt: as §1

The subject of a further test is Moraxella catarrhalis. In words: MIC by agar dilution, MCAT 30607. To be noted: for MIC: Moraxella catarrhalis, strain MCAT 30607, read-out: Antibacterial Activity Minimum Inhibitory Concentration MCAT 30607; for Antibacterial Activity Minimum Inhibitory Concentration MCAT 30607: strain MCAT 30607.
Excerpt: as §1

For the compound `CCC(=S)NC[C@H]1CN(c2ccc([C@H]3CC[S@+2]([O-])([N-]C)CC3)c(F)c2)C(=O)O1` [Example 13, N-({(5S)-3-[3-Fluoro-4-[1-(methylimino)-1-oxidohexahydro-1λ^4-thiopyran-4-yl]phenyl]-2-oxo-1,3-oxazolidin-5-yl}methyl)propanethioamide, Z-isomer], the MIC came out at 1 µg/mL (≈ 2.34 µM) in the test with Staphylococcus aureus; 0.5 µg/mL (≈ 1.17 µM) in test [1]; 0.5 µg/mL (≈ 1.17 µM) in the test on Enterococcus faecalis; 0.25 µg/mL (≈ 0.585 µM) with Streptococcus pneumoniae; 1 µg/mL (≈ 2.34 µM) with Enterococcus faecium; 8 µg/mL (≈ 18.7 µM) in the test on H. influenzae. In addition, the values for the MIC with Streptococcus pyogenes and in the test on Moraxella catarrhalis were 0.25 µg/mL (≈ 0.585 µM) and 2 µg/mL (≈ 4.68 µM), respectively.

In the case of `CCC(=S)NC[C@H]1CN(c2ccc(N3CCS(=O)(=NC)CC3)c(F)c2)C(=O)O1` [Example 25, N-[((5S)-3-{3-Fluoro-4-[1-(methylimino)-1-oxido-1λ^4,4-thiazinan-4-yl]phenyl}-2-oxo-1,3-oxazolidin-5-yl)methyl]propanethioamide], the MIC in the test with Staphylococcus aureus was 2 µg/mL (≈ 4.67 µM); in test [1] it was 0.5 µg/mL (≈ 1.17 µM); in the test on Enterococcus faecalis it was 1 µg/mL (≈ 2.33 µM); with Streptococcus pneumoniae, 0.25 µg/mL (≈ 0.583 µM); in the test with Enterococcus faecium it was 1 µg/mL (≈ 2.33 µM); with H. influenzae, 4 µg/mL (≈ 9.33 µM). For the same compound, the MIC was 0.5 µg/mL (≈ 1.17 µM) in the test with Streptococcus pyogenes and 4 µg/mL (≈ 9.33 µM) in the test on Moraxella catarrhalis.

`CN=S1(=O)CCN(c2ccc(N3C[C@H](CNC(=S)C4CC4)OC3=O)cc2F)CC1` [Example 26, N-[((5S)-3-{3-Fluoro-4-[1-(methylimino)-1-oxido-1λ^4,4-thiazinan-4-yl]phenyl}-2-oxo-1,3-oxazolidin-5-yl)methyl]cyclopropanecarbothioamide]: the MIC turned out to be 2 µg/mL (≈ 4.54 µM) in the test on Staphylococcus aureus; 0.5 µg/mL (≈ 1.13 µM) in test [1]; 0.5 µg/mL (≈ 1.13 µM) with Enterococcus faecalis; 0.25 µg/mL (≈ 0.567 µM) in the test on Streptococcus pneumoniae; 1 µg/mL (≈ 2.27 µM) in the test with Enterococcus faecium; 4 µg/mL (≈ 9.08 µM) in the test with H. influenzae. Further, the figures for the MIC in the test on Streptococcus pyogenes and in the test on Moraxella catarrhalis were 0.5 µg/mL (≈ 1.13 µM) and 2 µg/mL (≈ 4.54 µM), respectively.

Take `CCC(=S)NC[C@H]1CN(c2ccc(N3CCS(=O)(=NC(=O)OC)CC3)c(F)c2)C(=O)O1` [Example 27, N-[((5S)-3-{3-Fluoro-4-(1-[(methoxycarbonyl)imino]-1-oxido-1λ^4,4-thiazinan-4-yl)phenyl}-2-oxo-1,3-oxazolidin-5-yl)methyl]propanethioamide]: in the test on Staphylococcus aureus, the “Antibacterial Activity Minimum Inhibitory Concentration SAUR 9213” value was found to be 2 µg/mL. In addition, the “Antibacterial Activity Minimum Inhibitory Concentration SEPI 30593” value in test [1] was 0.5 µg/mL. For the same compound, the “Antibacterial Activity Minimum Inhibitory Concentration EFAE 9217” value in the test on Enterococcus faecalis was 0.5 µg/mL. Besides, in the test on Streptococcus pneumoniae, the “Antibacterial Activity Minimum Inhibitory Concentration SPNE 9912” value was determined as 0.125 µg/mL. Besides, the “Antibacterial Activity Minimum Inhibitory Concentration EFAE 12712” value with Enterococcus faecium was found to be 0.5 µg/mL. In addition, the “Antibacterial Activity Minimum Inhibitory Concentration HINF 30063” value with H. influenzae worked out at 4 µg/mL. The “Antibacterial Activity Minimum Inhibitory Concentration SPYO 152” value in the test with Streptococcus pyogenes worked out at 0.5 µg/mL. The “Antibacterial Activity Minimum Inhibitory Concentration MCAT 30607” value in the test on Moraxella catarrhalis was 8 µg/mL.

For `COC(=O)N=S1(=O)CCN(c2ccc(N3C[C@H](CNC(=S)C4CC4)OC3=O)cc2F)CC1` [Example 28, N-[((5S)-3-{3-Fluoro-4-(1-[(methoxycarbonyl)imino]-1-oxido-1λ^4,4-thiazinan-4-yl)phenyl}-2-oxo-1,3-oxazolidin-5-yl)methyl]cyclopropanecarbothioamide], the “Antibacterial Activity Minimum Inhibitory Concentration SAUR 9213” value in the test with Staphylococcus aureus worked out at 2 µg/mL. Further, in test [1], the “Antibacterial Activity Minimum Inhibitory Concentration SEPI 30593” value was 0.5 µg/mL. Moreover, the “Antibacterial Activity Minimum Inhibitory Concentration EFAE 9217” value in the test with Enterococcus faecalis worked out at 1 µg/mL. The “Antibacterial Activity Minimum Inhibitory Concentration SPNE 9912” value with Streptococcus pneumoniae came out at 0.25 µg/mL. Moreover, the “Antibacterial Activity Minimum Inhibitory Concentration EFAE 12712” value in the test with Enterococcus faecium is 1 µg/mL. Moreover, the “Antibacterial Activity Minimum Inhibitory Concentration HINF 30063” value with H. influenzae worked out at 4 µg/mL. The “Antibacterial Activity Minimum Inhibitory Concentration SPYO 152” value in the test on Streptococcus pyogenes turned out to be 0.5 µg/mL. Also, in the test with Moraxella catarrhalis, the “Antibacterial Activity Minimum Inhibitory Concentration MCAT 30607” value was 2 µg/mL.

Consider `C[N-][S+2]1([O-])CCC(c2ccc(N3CC(CNC(=S)C4CC4)OC3=O)cc2F)CC1` [Example 31, N-[((5S)-3-{3-Fluoro-4-[1-(methylimino)-1-oxidohexahydro-1λ^4-thiopyran-4-yl]phenyl}-2-oxo-1,3-oxazolidin-5-yl)methyl]cyclopropanecarbothioamide, E-isomer], for which the “Antibacterial Activity Minimum Inhibitory Concentration SAUR 9213” value with Staphylococcus aureus stood at 2 µg/mL. Also, in test [1], the “Antibacterial Activity Minimum Inhibitory Concentration SEPI 30593” value came out at 1 µg/mL. Moreover, the “Antibacterial Activity Minimum Inhibitory Concentration EFAE 9217” value in the test on Enterococcus faecalis turned out to be 1 µg/mL. For the same compound, the “Antibacterial Activity Minimum Inhibitory Concentration SPNE 9912” value in the test with Streptococcus pneumoniae came to 0.5 µg/mL. Moreover, in the test on Enterococcus faecium, the “Antibacterial Activity Minimum Inhibitory Concentration EFAE 12712” value is 2 µg/mL. For the same compound, the “Antibacterial Activity Minimum Inhibitory Concentration HINF 30063” value in the test on H. influenzae amounted to 8 µg/mL. In addition, in the test on Streptococcus pyogenes, the “Antibacterial Activity Minimum Inhibitory Concentration SPYO 152” value worked out at 1 µg/mL. Also, the “Antibacterial Activity Minimum Inhibitory Concentration MCAT 30607” value with Moraxella catarrhalis is 4 µg/mL.

Turning to `CCC(=S)NCC1CN(c2ccc(C3CC[S+2]([O-])([N-]C)CC3)c(F)c2)C(=O)O1` [Example 32, N-[((5S)-3-{3-Fluoro-4-[1-(methylimino)-1-oxidohexahydro-1λ^4-thiopyran-4-yl]phenyl}-2-oxo-1,3-oxazolidin-5-yl)methyl]propanethioamide, E-isomer], the MIC with Staphylococcus aureus came out at 4 µg/mL (≈ 9.36 µM); in test [1], 1 µg/mL (≈ 2.34 µM); in the test on Enterococcus faecalis, 2 µg/mL (≈ 4.68 µM); with Streptococcus pneumoniae, 0.5 µg/mL (≈ 1.17 µM); with Enterococcus faecium, 2 µg/mL (≈ 4.68 µM); in the test with H. influenzae, 8 µg/mL (≈ 18.7 µM). Besides, the MIC in the test with Streptococcus pyogenes was 1 µg/mL (≈ 2.34 µM); in the test on Moraxella catarrhalis, 8 µg/mL (≈ 18.7 µM).

With `CC(=O)NC[C@H]1CN(c2ccc(N3CCS(=N)(=O)CC3)c(F)c2)C(=O)O1` [PREP 1, N-({(5S)-3-[3-Fluoro-4-(1-imino-1-oxido-1λ^4,4-thiazinan-4-yl)phenyl]-2-oxo-1,3-oxazolidin-5-yl}methyl)acetamide], in the test with Staphylococcus aureus, the “Antibacterial Activity Minimum Inhibitory Concentration SAUR 9213” value turned out to be 16 µg/mL. Moreover, in test [1], the “Antibacterial Activity Minimum Inhibitory Concentration SEPI 30593” value came to 4 µg/mL. Also, the “Antibacterial Activity Minimum Inhibitory Concentration EFAE 9217” value in the test on Enterococcus faecalis was 8 µg/mL. Besides, the “Antibacterial Activity Minimum Inhibitory Concentration SPNE 9912” value in the test with Streptococcus pneumoniae turned out to be 1 µg/mL. Also, the “Antibacterial Activity Minimum Inhibitory Concentration EFAE 12712” value in the test with Enterococcus faecium was 4 µg/mL. In addition, the “Antibacterial Activity Minimum Inhibitory Concentration HINF 30063” value in the test on H. influenzae turned out to be 16 µg/mL. In the test with Streptococcus pyogenes, the “Antibacterial Activity Minimum Inhibitory Concentration SPYO 152” value was 2 µg/mL. For the same compound, the “Antibacterial Activity Minimum Inhibitory Concentration MCAT 30607” value in the test with Moraxella catarrhalis was 8 µg/mL.

As for `CC(=O)N=S1(=O)CCN(c2ccc(N3C[C@H](CNC(C)=O)OC3=O)cc2F)CC1` [PREP 2, N-({(5S)-3-[3-Fluoro-4-(1-acetylimino-1-oxido-1λ^4,4-thiazinan-4-yl)phenyl]-2-oxo-1,3-oxazolidin-5-yl}methyl)acetamide], the “Antibacterial Activity Minimum Inhibitory Concentration SAUR 9213” value in the test with Staphylococcus aureus is 16 µg/mL. The “Antibacterial Activity Minimum Inhibitory Concentration SEPI 30593” value in test [1] amounted to 2 µg/mL. Also, the “Antibacterial Activity Minimum Inhibitory Concentration EFAE 9217” value in the test on Enterococcus faecalis was found to be 2 µg/mL. The “Antibacterial Activity Minimum Inhibitory Concentration SPNE 9912” value in the test on Streptococcus pneumoniae turned out to be 1 µg/mL. In addition, in the test on Enterococcus faecium, the “Antibacterial Activity Minimum Inhibitory Concentration EFAE 12712” value was determined as 4 µg/mL. The “Antibacterial Activity Minimum Inhibitory Concentration HINF 30063” value in the test with H. influenzae came to 32 µg/mL. Besides, the “Antibacterial Activity Minimum Inhibitory Concentration SPYO 152” value in the test with Streptococcus pyogenes is 2 µg/mL. In the test on Moraxella catarrhalis, the “Antibacterial Activity Minimum Inhibitory Concentration MCAT 30607” value was found to be 8 µg/mL.
